Experimental data: ChEMBL document CHEMBL5338791, “Discovery of Novel 1,3-Diphenylpyrazine Derivatives as Potent S-Phase Kinase-Associated Protein 2 (Skp2) Inhibitors for the Treatment of Cancer” (J Med Chem, 2023)
The source made the active and inactive calls. No cut-off for these calls is given here.

Assays:
[1] = test system: MGC-803; test: Induction of cell cycle arrest in human MGC-803 cells assessed as accumulation of cells at S phase at 10 uM incubated for 24 hrs by flow cytometry (reference value: 20.41 %); format: functional
[2] = Toxicity in NOD-SCID mouse model xenografted with human MGC-803 cells assessed as change in spleen histology at 10 to 50 mg/kg, IG administered once every 2 days for 21 days by H and E staining based analysis; format: organism-based; conditions: in vivo, po, 504 h, dose 10-50 mg/kg, time 21 day
[3] = test system: MGC-803; test: Antitumor activity against human MGC-803 cells xenografted in NOD-SCID mouse model assessed as tumor growth inhibition at 10 to 50 mg/kg, IG administered once every 2 days for 21 days; format: functional, organism-based; conditions: dose 10-50 mg/kg, time 21.0 day
[4] = Clearance in plasma of NOD-SCID mouse model xenografted with human PC-3 cells at 25 mg/kg, IG measured upto 48 hrs by LC-MS/MS analysis; format: ADME, organism-based; conditions: po
[5] = test system: MGC-803; test: Induction of cell cycle arrest in human MGC-803 cells assessed as accumulation of cells at G1 phase at 10 uM incubated for 36 hrs by flow cytometry (reference value: 57.09 %); format: functional
[6] = test system: PC-3; test: Induction of cell cycle arrest in human PC-3 cells assessed as accumulation of cells at G1 phase at 2.5 uM incubated for 48 hrs by flow cytometry (reference value: 57.39 %); format: functional
[7] = test system: PC-3; test: Induction of apoptosis in human PC-3 cells assessed as late apoptotic cells at 10 uM incubated for 48 hrs by annexin V-FITC/PI staining based flow cytometry (reference value: 0.45 %); format: functional
[8] = test system: MGC-803; test: Induction of cell cycle arrest in human MGC-803 cells assessed as accumulation of cells at G2 phase at 10 uM incubated for 12 hrs by flow cytometry (reference value: 20.64 %); format: functional
[9] = test system: MGC-803; test: Upregulation of p27 level in human MGC-803 cells upto 10 uM by Western blot analysis; format: functional, cell-based; conditions: time 48.0 hrs, TDE = time-dependent effect
[10] = test system: PC-3; test: Induction of cell cycle arrest in human PC-3 cells assessed as accumulation of cells at S phase at 2.5 uM incubated for 48 hrs by flow cytometry (reference value: 22.44 %); format: functional
[11] = AUC (infinity) in tumor of NOD-SCID mouse model xenografted with human PC-3 cells at 25 mg/kg, IG measured upto 48 hrs by LC-MS/MS analysis; format: ADME, organism-based, Neoplasm; parameters: dose 25 mg/kg, time < 48 hrs, route ig; conditions: in vivo, po
[12] = target: S-phase kinase-associated protein 2 (Homo sapiens, UniProt Q13309); test: Inhibition of Skp2 in human PC-3 cells treated with shRNA 5'-GGACCTATCGAACTCAGTTAT-3' incubated upto 48 hrs by Western blot analysis (reference value: 4.8 +/- 0.5 microM); format: cell-based
Chain of S-phase kinase-associated protein 2 (Q13309 whole entry): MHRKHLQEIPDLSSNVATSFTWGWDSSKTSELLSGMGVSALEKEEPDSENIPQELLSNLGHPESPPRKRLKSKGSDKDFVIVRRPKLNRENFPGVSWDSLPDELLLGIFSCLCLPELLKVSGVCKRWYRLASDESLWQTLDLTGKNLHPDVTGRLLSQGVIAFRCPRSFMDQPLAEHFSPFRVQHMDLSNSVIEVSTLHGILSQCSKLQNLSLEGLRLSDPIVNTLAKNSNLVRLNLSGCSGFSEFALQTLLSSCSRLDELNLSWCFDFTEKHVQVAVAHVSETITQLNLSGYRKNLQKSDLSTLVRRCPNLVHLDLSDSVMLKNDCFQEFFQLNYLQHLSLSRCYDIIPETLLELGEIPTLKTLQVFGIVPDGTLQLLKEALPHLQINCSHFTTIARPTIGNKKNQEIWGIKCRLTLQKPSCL

[13] = test system: MGC-803; test: Induction of cell cycle arrest in human MGC-803 cells assessed as accumulation of cells at S phase at 10 uM incubated for 48 hrs by flow cytometry (reference value: 20.41 %); format: functional
[14] = test system: MGC-803; test: Upregulation of p21 level in human MGC-803 cells upto 10 uM by Western blot analysis; format: functional, cell-based; conditions: time 48.0 hrs, TDE = time-dependent effect
[15] = test system: MGC-803; test: Inhibition of cell migration in human MGC-803 cells incubated for 48 hrs by wound healing assay; format: functional, cell-based; conditions: dose <= 2.0 µM
[16] = test system: PC-3; test: Induction of apoptosis in human PC-3 cells assessed as necrotic cells at 10 uM incubated for 48 hrs by annexin V-FITC/PI staining based flow cytometry (reference value: 0.14 %); format: functional
[17] = test system: PC-9; test: Antitumor activity against human PC-9 cells overexpressing Skp2 assessed as cell growth inhibition incubated for 72 hrs by MTT assay; format: functional, cell-based; conditions: PC-9, 72 h
[18] = test system: MGC-803; test: Induction of cell cycle arrest in human MGC-803 cells assessed as accumulation of cells at S phase at 2.5 uM incubated for 48 hrs by flow cytometry (reference value: 22.72 %); format: functional
[19] = MRTlast in plasma of NOD-SCID mouse model xenografted with human PC-3 cells at 25 mg/kg, IG measured upto 48 hrs by LC-MS/MS analysis; format: ADME, organism-based; conditions: po
[20] = test system: MGC-803; test: Induction of apoptosis in human MGC-803 cells assessed as late apoptotic cells at 10 uM incubated for 48 hrs by annexin V-FITC/PI staining based flow cytometry (reference value: 0.95 %); format: functional
[21] = test system: PC-3; test: Antitumor activity against human PC-3 cells xenografted in NOD-SCID mouse model assessed as downregulation of ki67 level at 10 to 50 mg/kg, IG administered once every 2 days for 21 days by Western blot analysis; format: functional, organism-based; conditions: dose 10-50 mg/kg, time 21.0 day
[22] = test system: MGC-803; test: Inhibition of colony formation in human MGC-803 cells at 0.5 to 2 uM incubated for 10 days by crystal violet staining based microscopy; format: functional, cell-based; conditions: dose 0.5-2 µM, time 10.0 day
[23] = test system: PC-3; test: Downregulation of Skp2 level in human PC-3 cells incubated for 48 hrs by Western blot analysis; format: functional, cell-based; conditions: dose <= 10.0 µM
[24] = test system: PC-3; test: Induction of apoptosis in human PC-3 cells assessed as early apoptotic cells at 2.5 uM incubated for 48 hrs by annexin V-FITC/PI staining based flow cytometry (reference value: 0.85 %); format: functional
[25] = test system: MGC-803; test: Antitumor activity against human MGC-803 cells xenografted in NOD-SCID mouse model assessed as downregulation of ki67 level at 10 to 50 mg/kg, IG administered once every 2 days for 21 days by Western blot analysis; format: functional, organism-based; conditions: dose 10-50 mg/kg, time 21.0 day
[26] = Toxicity in NOD-SCID mouse model xenografted with human MGC-803 cells assessed as change in lung histology at 10 to 50 mg/kg, IG administered once every 2 days for 21 days by H and E staining based analysis; format: organism-based; conditions: in vivo, po, 504 h, dose 10-50 mg/kg, time 21 day
[27] = Apparent volume of distribution in plasma of NOD-SCID mouse model xenografted with human PC-3 cells at 25 mg/kg, IG measured upto 48 hrs by LC-MS/MS analysis; format: ADME, organism-based; conditions: in vivo, po
[28] = Toxicity in NOD-SCID mouse model xenografted with human MGC-803 cells assessed as body weight change at 10 to 50 mg/kg, IG administered once every 2 days for 21 days; format: organism-based; conditions: in vivo, po, 504 h, dose 10-50 mg/kg, time 21 day
[29] = test system: PC-3; test: Upregulation of p27 level in human PC-3 cells at 10 uM incubated upto 48 hrs by Western blot analysis; format: functional, cell-based
[30] = target: S-phase kinase-associated protein 2/Cyclin-dependent kinases regulatory subunit 1/S-phase kinase-associated protein 1 (Homo sapiens, UniProt Q13309); test: Inhibition of GST-tagged Skp2/Skp1 (unknown origin)/His6-tagged Cks1 (unknown origin) interaction preincubated with Skp2/Skp1 for 10 mins followed by Cks1 addition measured after 20 mins by HTRF assay; format: protein assay
Chain of S-phase kinase-associated protein 2/Cyclin-dependent kinases regulatory subunit 1/S-phase kinase-associated protein 1 (P61024 whole entry): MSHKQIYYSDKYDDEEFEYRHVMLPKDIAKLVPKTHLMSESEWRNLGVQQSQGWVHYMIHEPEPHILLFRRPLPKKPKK
Chain of S-phase kinase-associated protein 2/Cyclin-dependent kinases regulatory subunit 1/S-phase kinase-associated protein 1 (Q13309 whole entry): as the sequence (Q13309 whole entry) above
Chain of S-phase kinase-associated protein 2/Cyclin-dependent kinases regulatory subunit 1/S-phase kinase-associated protein 1 (P63208 whole entry, further chain): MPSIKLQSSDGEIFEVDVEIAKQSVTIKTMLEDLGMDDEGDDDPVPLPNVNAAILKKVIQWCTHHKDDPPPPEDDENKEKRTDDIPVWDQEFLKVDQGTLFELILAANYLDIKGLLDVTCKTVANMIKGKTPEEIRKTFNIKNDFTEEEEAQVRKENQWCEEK

[31] = test system: PC-3; test: Induction of apoptosis in human PC-3 cells assessed as viable cells at 10 uM incubated for 48 hrs by annexin V-FITC/PI staining based flow cytometry (reference value: 98.6 %); format: functional; conditions: read-out: Activity
[32] = test system: PC-3; test: Induction of cell cycle arrest in human PC-3 cells assessed as accumulation of cells at G1 phase at 10 uM incubated for 6 hrs by flow cytometry (reference value: 56.81 %); format: functional
[33] = test system: NCI-H1299; test: Antitumor activity against human NCI-H1299 cells overexpressing Skp2 assessed as cell growth inhibition incubated for 72 hrs by MTT assay; format: functional, cell-based; conditions: NCI-H1299, 72 h

For `O=C(CCl)NC1CCN(c2cnc(-c3ccccc3)c(-c3ccccc3)n2)CC1`, the Activity [1] was 35.4%, the Activity [2] was “Non-Toxic” and the TGI [3] was “Active”. The CL/F [4] was 7.1 L/h/kg, the Activity [5] was 35.48% and the Activity [6] was 48.73%. The Activity [7] was 27.9%, the Activity [8] was 18.63% and the Activity [9] was “Tde”. It also gave an Activity [10] of 29.96%, an AUC [11] of 2636 ng·h/g and an IC50 [12] of 38.5 µM. For the same molecule, the Activity [13] was 38.76%, the Activity [14] was “Tde” and the inhibition [15] was “Dose-Dependent Effect”. The Activity [16] was 13.2%, the IC50 [17] was 8.1 µM and the Activity [18] was 26.89%. The MRT last at 48 h [19] was 13.4 h, the Activity [20] was 24.9% and the Activity [21] was “Active”. The inhibition [22] was “Active”, the Activity [23] was “Dose-Dependent Effect” and the Activity [24] was 0.96%. The Activity [25] was “Active”, the Activity [26] was “Non-Toxic” and the Vz [27] was 143.3 L/kg. For the same molecule, the Activity [28] was “Non-Toxic”, the Activity [29] was “Active” and the IC50 [30] was 2.8 µM. It also gave a viability at 10 µM [31] of 58.6%, an Activity [32] of 46.91% and an IC50 [33] of 3.6 µM.
